Data taken from ChEMBL document CHEMBL1201862, “PubChem BioAssay data set” (2004).
Structures can show the parent of a compound that is named as a salt. Calls of active or inactive are those of the source.

Experiments:
[1] = target: T1, Corticotropin-releasing factor receptor 2/Corticotropin-releasing factor-binding protein (Homo sapiens, UniProt P24387+Q13324); test: Dose Response confirmation of uHTS hits for small molecule antagonists of the CRF-binding protein and CRF-R2 receptor complex.; format: functional; details: read-out: IC50_Mean
T1 sequence (Q13324 whole entry): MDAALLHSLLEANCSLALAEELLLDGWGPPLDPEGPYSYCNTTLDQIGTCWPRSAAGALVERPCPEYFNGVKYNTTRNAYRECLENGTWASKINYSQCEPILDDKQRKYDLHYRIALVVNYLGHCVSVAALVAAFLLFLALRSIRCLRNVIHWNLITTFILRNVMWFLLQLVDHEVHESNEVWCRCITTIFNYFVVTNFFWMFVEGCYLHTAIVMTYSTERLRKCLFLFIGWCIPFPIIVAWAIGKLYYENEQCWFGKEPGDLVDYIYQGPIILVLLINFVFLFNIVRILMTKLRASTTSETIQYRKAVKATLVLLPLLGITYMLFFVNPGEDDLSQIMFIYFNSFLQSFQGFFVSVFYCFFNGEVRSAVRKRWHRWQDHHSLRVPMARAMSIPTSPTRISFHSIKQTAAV
T1 sequence (P24387 whole entry): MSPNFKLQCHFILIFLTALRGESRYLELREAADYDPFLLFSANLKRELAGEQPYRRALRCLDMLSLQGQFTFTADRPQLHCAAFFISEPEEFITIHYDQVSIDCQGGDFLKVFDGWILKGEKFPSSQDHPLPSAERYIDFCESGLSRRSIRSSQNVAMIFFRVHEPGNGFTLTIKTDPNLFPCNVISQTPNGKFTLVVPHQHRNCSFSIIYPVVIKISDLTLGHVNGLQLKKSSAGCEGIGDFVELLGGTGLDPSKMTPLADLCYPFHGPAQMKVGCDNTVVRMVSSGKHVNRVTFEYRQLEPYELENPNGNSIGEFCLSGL

[2] = target: T1, Corticotropin-releasing factor receptor 2/Corticotropin-releasing factor-binding protein; test: activators of CRF receptor 2 with binding protein – uHTS hits, confirmation (AID 602473); format: functional; details: read-out: EC50_Mean
[3] = blockers of CRF-binding protein–CRF-R2 complex – cell-based, uHTS hits, 384-well, dose response (AID 651639); format: functional, Homo sapiens; details: read-out: IC50_Mean
Escherichia coli [4] = test: microbe, parasite or virus in culture
Streptococcus = test: GAS UMAA2166 growth inhibition – luminescence, BacTiterGlo, counter-screen for streptokinase expression inhibitor project, dose response (AID 1915); format: functional, organism-based;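 note: potency for reduction of bacterial viability or growth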
[5] = system: Streptococcus sp. 'group A'; test: Streptococcus pyogenes SK(-)GAS viability under kanamycin – luminescence, BacTiterGlo, confirmation, counter-screen for streptokinase expression inhibitor project, dose response (AID 1900); format: functional, organism-based
Escherichia coli [6] = test: microbe, parasite or virus in culture; remark: listed apart in the source
[7] = target: T2, RNA-binding protein pos-1 (Caenorhabditis elegans, UniProt G5EF15); test: disruptors of C. elegans POS-1 RNA interaction – biochemical, fluorescence polarization, dose response (AID 1964);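 note: purified POS-1 fused to maltose binding protein made in E. coli; potency of compounds blocking POS-1 binding to fluorescent RNA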
T2 sequence (G5EF15 whole entry): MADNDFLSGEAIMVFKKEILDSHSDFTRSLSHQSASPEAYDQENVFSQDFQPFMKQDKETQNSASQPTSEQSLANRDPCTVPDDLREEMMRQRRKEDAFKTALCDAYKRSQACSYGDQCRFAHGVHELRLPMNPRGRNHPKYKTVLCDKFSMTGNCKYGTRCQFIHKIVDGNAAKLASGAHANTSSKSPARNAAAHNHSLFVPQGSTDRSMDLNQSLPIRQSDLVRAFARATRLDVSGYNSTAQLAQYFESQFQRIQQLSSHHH

[8] = inhibition of ARNT PAS-B/TACC3 complex formation – biochemical, AlphaScreen, cherry-picked samples, confirmation (AID 651703); format: functional, Homo sapiens;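 note: His-tagged ARNT PAS-B domain paired with GST-TACC3 E629A dimer coactivator fragment; potency of inhibitors that break up the complex and lower AlphaScreen signal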
[9] = target: T3, Zinc finger protein mex-5 (Caenorhabditis elegans, UniProt Q9XUB2); test: potency of MEX-5 RNA-binding blockers – biochemical, C. elegans, fluorescence polarization, dose response (AID 1960)
T3 sequence (Q9XUB2 whole entry): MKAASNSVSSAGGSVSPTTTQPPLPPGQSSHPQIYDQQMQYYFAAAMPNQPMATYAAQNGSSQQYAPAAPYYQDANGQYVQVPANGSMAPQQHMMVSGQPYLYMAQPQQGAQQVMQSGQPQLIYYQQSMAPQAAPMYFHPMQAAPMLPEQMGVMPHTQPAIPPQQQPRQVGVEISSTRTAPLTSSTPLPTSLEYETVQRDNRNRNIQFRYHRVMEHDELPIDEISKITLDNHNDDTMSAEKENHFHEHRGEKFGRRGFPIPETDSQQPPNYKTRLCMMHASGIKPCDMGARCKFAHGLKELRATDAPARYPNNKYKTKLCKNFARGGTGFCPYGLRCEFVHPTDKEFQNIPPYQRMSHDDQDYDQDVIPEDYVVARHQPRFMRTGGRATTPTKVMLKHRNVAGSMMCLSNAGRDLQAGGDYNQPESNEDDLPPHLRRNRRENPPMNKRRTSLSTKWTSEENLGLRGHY

[10] = target: T4, Tyrosyl-DNA phosphodiesterase 2 (Homo sapiens, UniProt O95551); test: potency against TDP2 phosphodiesterase activity – biochemical, epi absorbance, IC50, dose response (AID 743297)
T4 sequence (O95551 whole entry): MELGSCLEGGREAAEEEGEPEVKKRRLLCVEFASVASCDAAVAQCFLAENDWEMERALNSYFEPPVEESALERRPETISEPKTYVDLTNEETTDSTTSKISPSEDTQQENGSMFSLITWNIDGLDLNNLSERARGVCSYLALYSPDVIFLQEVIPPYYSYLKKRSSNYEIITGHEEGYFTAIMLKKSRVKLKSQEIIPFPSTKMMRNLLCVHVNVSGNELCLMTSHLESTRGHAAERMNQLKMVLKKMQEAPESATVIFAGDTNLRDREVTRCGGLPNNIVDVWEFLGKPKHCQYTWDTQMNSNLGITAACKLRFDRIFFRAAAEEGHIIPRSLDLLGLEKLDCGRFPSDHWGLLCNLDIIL

[11] = target: T5, Histone-lysine N-methyltransferase NSD2 (Homo sapiens, UniProt O96028); format: biochemical
T5 sequence (O96028 whole entry): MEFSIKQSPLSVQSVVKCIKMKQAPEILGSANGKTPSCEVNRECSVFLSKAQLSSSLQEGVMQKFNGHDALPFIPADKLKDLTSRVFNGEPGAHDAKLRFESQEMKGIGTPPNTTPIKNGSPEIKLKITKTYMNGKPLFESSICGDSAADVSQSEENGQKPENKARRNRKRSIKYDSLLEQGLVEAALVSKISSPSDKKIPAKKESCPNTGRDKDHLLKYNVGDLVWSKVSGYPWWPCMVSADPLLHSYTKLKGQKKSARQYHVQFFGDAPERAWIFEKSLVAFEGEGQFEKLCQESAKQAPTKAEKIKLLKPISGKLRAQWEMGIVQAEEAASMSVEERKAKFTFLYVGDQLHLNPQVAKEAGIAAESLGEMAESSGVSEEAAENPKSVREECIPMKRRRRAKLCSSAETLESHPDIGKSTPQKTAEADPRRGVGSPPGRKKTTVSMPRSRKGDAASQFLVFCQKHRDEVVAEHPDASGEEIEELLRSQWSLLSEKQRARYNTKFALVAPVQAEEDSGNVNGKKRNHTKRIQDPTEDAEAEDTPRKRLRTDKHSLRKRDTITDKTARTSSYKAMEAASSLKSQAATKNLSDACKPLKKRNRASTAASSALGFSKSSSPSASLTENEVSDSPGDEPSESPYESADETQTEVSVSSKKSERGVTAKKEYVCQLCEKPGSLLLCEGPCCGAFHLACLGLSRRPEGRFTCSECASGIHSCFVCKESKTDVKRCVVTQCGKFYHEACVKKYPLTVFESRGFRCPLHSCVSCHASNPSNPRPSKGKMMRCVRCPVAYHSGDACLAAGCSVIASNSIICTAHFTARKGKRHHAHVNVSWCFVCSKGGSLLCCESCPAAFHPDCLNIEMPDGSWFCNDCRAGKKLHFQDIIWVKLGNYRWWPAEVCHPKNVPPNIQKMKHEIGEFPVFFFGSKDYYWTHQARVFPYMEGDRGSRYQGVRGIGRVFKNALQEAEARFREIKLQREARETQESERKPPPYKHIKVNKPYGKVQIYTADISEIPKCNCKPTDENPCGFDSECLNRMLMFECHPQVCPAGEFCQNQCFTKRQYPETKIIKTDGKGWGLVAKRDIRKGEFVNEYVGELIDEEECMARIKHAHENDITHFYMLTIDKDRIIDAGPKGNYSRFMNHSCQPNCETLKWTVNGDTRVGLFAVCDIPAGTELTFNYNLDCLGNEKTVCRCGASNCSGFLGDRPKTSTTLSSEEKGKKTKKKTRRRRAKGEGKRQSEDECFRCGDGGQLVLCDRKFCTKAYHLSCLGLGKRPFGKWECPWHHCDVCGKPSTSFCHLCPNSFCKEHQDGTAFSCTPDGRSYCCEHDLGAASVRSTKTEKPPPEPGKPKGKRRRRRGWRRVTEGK

[12] = target: Mitochondrial peptide methionine sulfoxide reductase (Bos taurus, UniProt P54149); test: Absorbance-based biochemical high throughput dose response assay for activators of Methionine sulfoxide reductase A (MsrA).; format: functional
Sequence of Mitochondrial peptide methionine sulfoxide reductase (P54149 whole entry): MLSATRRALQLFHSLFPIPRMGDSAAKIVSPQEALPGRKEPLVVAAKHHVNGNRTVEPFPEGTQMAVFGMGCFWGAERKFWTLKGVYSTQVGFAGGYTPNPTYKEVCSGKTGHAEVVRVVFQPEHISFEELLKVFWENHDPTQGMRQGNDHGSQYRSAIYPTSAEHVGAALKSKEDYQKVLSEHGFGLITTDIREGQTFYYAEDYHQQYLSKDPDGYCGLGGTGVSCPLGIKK

[13] = target: T6, RNA-editing ligase 1, mitochondrial (Trypanosoma brucei brucei, UniProt P86926); test: inhibition of trypanosome RNA editing ligase – biochemical, fluorescence, Trypanosoma brucei, dose response (AID 1117295); format: functional
T6 sequence (P86926 whole entry): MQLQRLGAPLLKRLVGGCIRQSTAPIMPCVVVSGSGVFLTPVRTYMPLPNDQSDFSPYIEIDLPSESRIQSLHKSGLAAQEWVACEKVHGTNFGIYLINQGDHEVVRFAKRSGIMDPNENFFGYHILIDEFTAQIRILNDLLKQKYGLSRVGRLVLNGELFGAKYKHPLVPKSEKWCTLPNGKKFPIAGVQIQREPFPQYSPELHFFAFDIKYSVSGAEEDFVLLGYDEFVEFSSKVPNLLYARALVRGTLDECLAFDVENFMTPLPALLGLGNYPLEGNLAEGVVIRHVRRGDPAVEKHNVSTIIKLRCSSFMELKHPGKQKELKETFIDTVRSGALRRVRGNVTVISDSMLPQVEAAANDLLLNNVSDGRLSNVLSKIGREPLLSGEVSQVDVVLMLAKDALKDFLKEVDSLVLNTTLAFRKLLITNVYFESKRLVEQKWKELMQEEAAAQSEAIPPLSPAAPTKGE

[14] = target: Ras and Rab interactor 1/Tyrosine-protein kinase ABL1 (Homo sapiens, UniProt P00519+Q13671); format: functional;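 note: biochemical TR-FRET dose-response test measuring inhibition of binding between Rin1 and Abl proteins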
Sequence of Ras and Rab interactor 1/Tyrosine-protein kinase ABL1 (P00519 whole entry): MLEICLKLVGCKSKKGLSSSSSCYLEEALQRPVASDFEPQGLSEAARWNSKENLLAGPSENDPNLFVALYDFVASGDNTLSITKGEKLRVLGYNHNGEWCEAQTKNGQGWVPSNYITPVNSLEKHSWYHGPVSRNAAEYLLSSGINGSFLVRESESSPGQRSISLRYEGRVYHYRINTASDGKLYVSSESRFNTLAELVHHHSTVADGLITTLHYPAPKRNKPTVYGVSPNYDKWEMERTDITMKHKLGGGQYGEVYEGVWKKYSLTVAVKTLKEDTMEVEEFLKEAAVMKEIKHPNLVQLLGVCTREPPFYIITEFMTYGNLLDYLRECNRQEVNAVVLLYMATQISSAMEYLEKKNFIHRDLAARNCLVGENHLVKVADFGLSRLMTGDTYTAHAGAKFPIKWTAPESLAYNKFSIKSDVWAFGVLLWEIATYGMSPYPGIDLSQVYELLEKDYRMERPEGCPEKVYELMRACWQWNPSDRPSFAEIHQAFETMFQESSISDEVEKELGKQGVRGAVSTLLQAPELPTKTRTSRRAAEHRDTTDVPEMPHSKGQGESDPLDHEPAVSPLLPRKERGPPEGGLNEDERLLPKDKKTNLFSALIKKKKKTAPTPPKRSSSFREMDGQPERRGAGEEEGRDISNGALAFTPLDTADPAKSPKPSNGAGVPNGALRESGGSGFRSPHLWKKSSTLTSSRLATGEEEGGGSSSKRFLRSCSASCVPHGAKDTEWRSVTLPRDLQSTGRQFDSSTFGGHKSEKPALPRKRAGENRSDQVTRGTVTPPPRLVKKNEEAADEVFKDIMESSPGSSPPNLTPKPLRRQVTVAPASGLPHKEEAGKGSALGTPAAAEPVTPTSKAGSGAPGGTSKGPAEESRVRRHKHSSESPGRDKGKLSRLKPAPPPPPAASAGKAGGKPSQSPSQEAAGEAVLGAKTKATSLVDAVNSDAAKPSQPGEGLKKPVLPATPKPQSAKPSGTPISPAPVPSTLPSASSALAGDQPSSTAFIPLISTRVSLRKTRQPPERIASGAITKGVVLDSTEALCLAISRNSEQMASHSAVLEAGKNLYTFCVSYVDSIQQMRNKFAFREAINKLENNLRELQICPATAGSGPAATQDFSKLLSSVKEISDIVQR
Sequence of Ras and Rab interactor 1/Tyrosine-protein kinase ABL1 (Q13671 whole entry): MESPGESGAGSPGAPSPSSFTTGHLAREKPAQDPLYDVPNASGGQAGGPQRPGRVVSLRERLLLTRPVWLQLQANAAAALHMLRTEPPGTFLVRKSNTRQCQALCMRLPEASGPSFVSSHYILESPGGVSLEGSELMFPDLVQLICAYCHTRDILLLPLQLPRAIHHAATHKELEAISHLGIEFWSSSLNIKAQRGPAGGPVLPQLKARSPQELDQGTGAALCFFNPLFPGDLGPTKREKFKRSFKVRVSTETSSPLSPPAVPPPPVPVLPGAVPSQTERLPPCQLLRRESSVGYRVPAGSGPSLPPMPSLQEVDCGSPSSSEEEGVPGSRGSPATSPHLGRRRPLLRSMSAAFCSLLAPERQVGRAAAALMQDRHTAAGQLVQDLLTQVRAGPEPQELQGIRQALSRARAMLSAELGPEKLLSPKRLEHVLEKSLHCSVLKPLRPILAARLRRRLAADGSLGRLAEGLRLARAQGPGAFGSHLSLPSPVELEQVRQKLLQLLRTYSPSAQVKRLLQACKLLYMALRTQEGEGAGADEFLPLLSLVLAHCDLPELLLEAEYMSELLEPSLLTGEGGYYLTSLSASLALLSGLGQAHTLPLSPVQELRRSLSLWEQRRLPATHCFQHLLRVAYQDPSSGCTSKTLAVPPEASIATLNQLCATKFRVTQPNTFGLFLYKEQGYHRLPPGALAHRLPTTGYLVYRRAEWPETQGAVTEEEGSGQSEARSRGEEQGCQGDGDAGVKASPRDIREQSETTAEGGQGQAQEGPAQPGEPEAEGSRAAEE

[15] = non-specific 3'UTR reporter inhibition in Clone20-Shn3RL – cell-based, Renilla luciferase, cherry-picked, counter-screen for Shn3 inhibitor project, dose response (AID 624133); format: functional
[16] = target: T7, COUP transcription factor 2 (Homo sapiens, UniProt P24468); test: Luminescence-based cell-based high throughput dose response assay to identify inhibitors of COUP-TFII (NR2F2).; format: functional;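 note: HEK293 cells transiently cotransfected with COUP-TFII expression vector and reporter; luciferase reporter luminescence driven by COUP-TFII from the pX2-168 reporter plasmid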
T7 sequence (P24468 whole entry): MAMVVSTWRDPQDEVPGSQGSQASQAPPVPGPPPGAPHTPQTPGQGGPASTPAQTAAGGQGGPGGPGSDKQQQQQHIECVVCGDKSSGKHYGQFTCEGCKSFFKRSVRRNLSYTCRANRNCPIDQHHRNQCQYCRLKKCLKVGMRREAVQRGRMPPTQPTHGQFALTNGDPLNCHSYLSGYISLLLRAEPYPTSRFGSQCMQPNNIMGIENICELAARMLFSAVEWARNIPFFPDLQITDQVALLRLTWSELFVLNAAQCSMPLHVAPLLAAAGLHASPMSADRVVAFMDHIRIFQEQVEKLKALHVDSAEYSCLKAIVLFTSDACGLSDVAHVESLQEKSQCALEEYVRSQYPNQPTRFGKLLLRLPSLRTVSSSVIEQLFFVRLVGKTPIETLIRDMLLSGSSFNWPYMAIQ

[17] = loss of viability in HepG2 cells – cell-based, CellTiter-Glo, cherry-picked, cytotoxicity control for Shn3 inhibitor project, dose response (AID 624134); format: functional
Protein Wnt-3a = Protein Wnt-3a (Mus musculus, UniProt P27467); test: antagonism of Wnt3a pathway luciferase reporter – Wnt-LIGHT cells, luminescence, selectivity assay for Gli-SUFU antagonist project, dose response (AID 651570); format: functional; details: read-out: IC50_Mean;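 note: Wnt-LIGHT reporter cells stimulated with conditioned medium from Wnt3a-producing cells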
Sequence of Protein Wnt-3a (P27467 whole entry): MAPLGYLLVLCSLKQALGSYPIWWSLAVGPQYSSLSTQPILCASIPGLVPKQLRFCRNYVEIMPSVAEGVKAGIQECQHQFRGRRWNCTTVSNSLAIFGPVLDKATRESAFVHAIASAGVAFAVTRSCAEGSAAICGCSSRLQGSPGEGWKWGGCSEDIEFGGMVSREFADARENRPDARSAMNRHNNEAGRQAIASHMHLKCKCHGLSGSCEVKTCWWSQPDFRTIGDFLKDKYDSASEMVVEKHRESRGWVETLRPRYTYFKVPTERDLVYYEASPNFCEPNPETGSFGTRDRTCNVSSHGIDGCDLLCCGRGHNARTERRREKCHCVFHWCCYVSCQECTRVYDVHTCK

[18] = reduction of Shn3 3'UTR-driven luciferase in osteoblasts – cell-based, Clone20 osteoblasts, firefly luciferase, cherry-picked, dose response (AID 624132); format: functional;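 note: firefly luciferase luminescence from reporter carrying the Shn3 3'UTR in osteoblasts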
Large T antigen = Large T antigen (Simian virus 40, UniProt P03070); format: functional, Betapolyomavirus macacae;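 note: Confirmatory-stage PubChem screen for compounds that inhibit SV40 T antigen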
Sequence of Large T antigen (P03070 whole entry): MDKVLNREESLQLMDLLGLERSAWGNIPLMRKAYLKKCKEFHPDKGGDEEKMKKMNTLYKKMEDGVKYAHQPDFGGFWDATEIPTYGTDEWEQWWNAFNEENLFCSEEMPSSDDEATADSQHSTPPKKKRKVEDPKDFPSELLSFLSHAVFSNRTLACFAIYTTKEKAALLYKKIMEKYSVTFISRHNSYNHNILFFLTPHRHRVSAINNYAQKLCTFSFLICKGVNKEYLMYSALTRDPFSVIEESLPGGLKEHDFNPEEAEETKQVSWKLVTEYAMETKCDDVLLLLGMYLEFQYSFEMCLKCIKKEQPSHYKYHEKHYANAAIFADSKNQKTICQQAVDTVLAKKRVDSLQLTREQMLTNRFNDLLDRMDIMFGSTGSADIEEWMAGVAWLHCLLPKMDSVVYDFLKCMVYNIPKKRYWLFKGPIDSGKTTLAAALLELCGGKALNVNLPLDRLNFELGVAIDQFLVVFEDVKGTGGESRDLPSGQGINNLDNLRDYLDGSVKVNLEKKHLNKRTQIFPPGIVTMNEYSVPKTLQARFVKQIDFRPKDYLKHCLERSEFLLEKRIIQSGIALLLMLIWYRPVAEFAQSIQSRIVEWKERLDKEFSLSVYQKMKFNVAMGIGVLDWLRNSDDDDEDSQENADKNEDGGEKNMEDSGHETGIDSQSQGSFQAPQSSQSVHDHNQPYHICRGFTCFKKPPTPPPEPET

Mu-type opioid receptor = Mu-type opioid receptor (Homo sapiens, UniProt P35372); format: functional, cell-based;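 note: U2OS cells with beta-arrestin recruitment to OPRM1 by beta-gal complementation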
Sequence of Mu-type opioid receptor (P35372 whole entry): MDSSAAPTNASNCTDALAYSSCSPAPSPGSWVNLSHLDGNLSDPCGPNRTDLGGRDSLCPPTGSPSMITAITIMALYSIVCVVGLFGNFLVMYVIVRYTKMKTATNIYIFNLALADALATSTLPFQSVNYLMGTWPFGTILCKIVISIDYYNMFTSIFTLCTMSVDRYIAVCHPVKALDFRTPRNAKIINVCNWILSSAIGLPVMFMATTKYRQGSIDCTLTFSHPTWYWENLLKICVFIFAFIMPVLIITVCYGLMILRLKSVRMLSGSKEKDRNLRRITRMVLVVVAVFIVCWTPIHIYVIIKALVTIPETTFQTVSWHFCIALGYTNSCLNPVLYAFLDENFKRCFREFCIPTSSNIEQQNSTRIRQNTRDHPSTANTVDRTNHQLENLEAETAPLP

COc1ccc(/C=C2\CCC/C(=C\c3ccc(OC)c(OC)c3OC)C2=O)c(OC)c1OC
IC50 [1]: 4.04 µM (active) | EC50 [2]: > 53 µM (inactive) | IC50 [3]: 7.33 µM (active)

CN(C)[C@@H]1C(=O)C(C(N)=O)=C(O)[C@@]2(O)C(O)=C3C(=O)c4c(O)cccc4[C@@](C)(O)C3[C@H](O)C12 (stereo partly specified)
AC50 (Escherichia coli [4]): 9.92 µM (active) | EC50 (Streptococcus): 0.277 µM (active) | EC50 [5]: 0.088 µM (active) | AC50 (Escherichia coli [6]): < 0.3 µM (active) | EC50 [7]: 54.1 µM (active) | AC50 [8]: 75.2 µM (active) | EC50 [9]: 20.5 µM (active)

COC1=CC(=O)c2nc(Cl)ccc2C1=O
IC50 [10]: 4.46 µM (active) | AC50 [11]: 4.32 µM (active) | EC50 [12]: 44.4 µM (inactive) | IC50 [13]: 28.3 µM (inactive)

CCOC(=O)CCCCC(=O)c1[nH]c(O)nc1CSc1nc2ccccc2[nH]1
AC50 [11]: 7.6 µM (active) | IC50 [14]: 0.0967 µM (active)

CC1C(OC(=O)CCC(=O)NC(C)(C)CO)O[C@H]2OC3(C)CC[C@H]4[C@H](C)CCC1C24OO3 (stereo partly specified)
AC50 [15]: 0.841 µM (active) | IC50 [16]: > 85.4 µM (inactive) | AC50 [17]: > 70 µM (inactive) | IC50 (Protein Wnt-3a): 0.794 µM (active) | AC50 [18]: 0.495 µM (active)

CCc1noc(C)c1C(=O)N1CCS/C1=N\c1cccc(Cl)c1C
IC50 [1]: < 0.368 µM (active) | EC50 [2]: > 53 µM (inactive) | IC50 [3]: > 20 µM (inactive)

NCCc1c[nH]c2ccc(O)cc12 [SEROTONIN HYDROCHLORIDE]
IC50 (Large T antigen): 41.3 µM (active) | EC50 (Mu-type opioid receptor): 92.4 µM (inactive)
